Measured values as given in ChEMBL document CHEMBL1150091, “Cytotoxic compounds from a two-sponge association” (J Nat Prod, 1995).
In brackets after ≈: the same amount, converted by molar mass. Activity calls are given as the source filed them. No cut-off for these calls is given here.

Key:
[1] = Toxicity in Artemia salina; type: organism-based; conditions: in vivo
EKVX = test: Cytotoxicity against human EKVX cells; type: functional; conditions: read-out: LC50 (the source's name)
HOP-62 = test: Cytotoxicity against human HOP62 cells; type: functional; conditions: read-out: LC50 (the source's name)
HOP-92 = test: Cytotoxicity against human HOP92 cells; type: functional; conditions: read-out: LC50 (the source's name)
COLO 205 = test: Cytotoxicity against human COLO205 cells; type: functional; conditions: read-out: LC50 (the source's name)
HCT-116 = test: Cytotoxicity against human HCT116 cells; type: functional; conditions: read-out: LC50 (the source's name)
SF-268 = test: Cytotoxicity against human SF268 cells; type: functional; conditions: read-out: LC50 (the source's name)
SF-295 = test: Cytotoxicity against human SF295 cells; type: functional; conditions: read-out: LC50 (the source's name)
Malme-3M = test: Cytotoxicity against human MALME-3M cells; type: functional; conditions: read-out: LC50 (the source's name)
M14 = test: Cytotoxicity against human M14 cells; type: functional; conditions: read-out: LC50 (the source's name)
SK-MEL-28 = test: Cytotoxicity against human SK-MEL-28 cells; type: functional; conditions: read-out: LC50 (the source's name)
SK-MEL-5 = test: Cytotoxicity against human SK-MEL-5 cells; type: functional; conditions: read-out: LC50 (the source's name)
IGROV-1 = test: Cytotoxicity against human IGROV1 cells; type: functional; conditions: read-out: LC50 (the source's name)
OVCAR-3 = test: Cytotoxicity against human OVCAR-3 cells; type: functional; conditions: read-out: LC50 (the source's name)
A498 = test: Cytotoxicity against human A498 cells; type: functional; conditions: read-out: LC50 (the source's name)
CAKI-1 = test: Cytotoxicity against human Caki1 cells; type: functional; conditions: read-out: LC50 (the source's name)
RXF 393 = test: Cytotoxicity against human […] cells; type: functional; conditions: read-out: LC50 (the source's name)
TK-10 = test: Cytotoxicity against human TK10 cells; type: functional; conditions: read-out: LC50 (the source's name)
UO-31 = test: Cytotoxicity against human UO31 cells; type: functional; conditions: read-out: LC50 (the source's name)
[2] = Cytotoxicity against human Hs 578T cells; type: functional; conditions: read-out: LC50 (the source's name)
BT-549 = test: Cytotoxicity against human BT549 cells; type: functional; conditions: read-out: LC50 (the source's name)
CCRF-CEM = test: Cytotoxicity against human CCRF-CEM cells; type: functional; conditions: read-out: LC50 (the source's name)
HL-60(TB) = test: Cytotoxicity against human HL-60(TB) cells; type: functional; conditions: read-out: LC50 (the source's name)
K562 = test: Cytotoxicity against human K562 cells; type: functional; conditions: read-out: LC50 (the source's name)
MOLT-4 = test: Cytotoxicity against human MOLT4 cells; type: functional; conditions: read-out: LC50 (the source's name)
[3] = Cytotoxicity against human […] cells; type: functional; conditions: read-out: LC50 (the source's name)
SR = test: Cytotoxicity against human SR cells; type: functional; conditions: read-out: LC50 (the source's name)
A549 = test: Cytotoxicity against human A549 cells; type: functional; conditions: read-out: LC50 (the source's name)
NCI-H226 = test: Cytotoxicity against human NCI-H226 cells; type: functional; conditions: read-out: LC50 (the source's name)
NCI-H23 = test: Cytotoxicity against human NCI-H23 cells; type: functional; conditions: read-out: LC50 (the source's name)
NCI-H322M = test: Cytotoxicity against human NCI-H322M cells; type: functional; conditions: read-out: LC50 (the source's name)
NCI-H460 = test: Cytotoxicity against human NCI-H460 cells; type: functional; conditions: read-out: LC50 (the source's name)
NCI-H522 = test: Cytotoxicity against human NCI-H522 cells; type: functional; conditions: read-out: LC50 (the source's name)
HCC 2998 = test: Cytotoxicity against human HCC2998 cells; type: functional; conditions: read-out: LC50 (the source's name)
HCT-15 = test: Cytotoxicity against human HCT15 cells; type: functional; conditions: read-out: LC50 (the source's name)
HT-29 = test: Cytotoxicity against human HT-29 cells; type: functional; conditions: read-out: LC50 (the source's name)
KM12 = test: Cytotoxicity against human KM12 cells; type: functional; conditions: read-out: LC50 (the source's name)
SW-620 = test: Cytotoxicity against human SW620 cells; type: functional; conditions: read-out: LC50 (the source's name)
SF-539 = test: Cytotoxicity against human SF539 cells; type: functional; conditions: read-out: LC50 (the source's name)
SNB-19 = test: Cytotoxicity against human SNB19 cells; type: functional; conditions: read-out: LC50 (the source's name)
U-251 = test: Cytotoxicity against human U251 cells; type: functional; conditions: read-out: LC50 (the source's name)
LOX IMVI = test: Cytotoxicity against human LOXIMVI cells; type: functional; conditions: read-out: LC50 (the source's name)
SK-MEL-2 = test: Cytotoxicity against human SK-MEL-2 cells; type: functional; conditions: read-out: LC50 (the source's name)
UACC-257 = test: Cytotoxicity against human UACC257 cells; type: functional; conditions: read-out: LC50 (the source's name)
UACC-62 = test: Cytotoxicity against human UACC62 cells; type: functional; conditions: read-out: LC50 (the source's name)
OVCAR-4 = test: Cytotoxicity against human OVCAR4 cells; type: functional; conditions: read-out: LC50 (the source's name)
OVCAR-5 = test: Cytotoxicity against human OVCAR5 cells; type: functional; conditions: read-out: LC50 (the source's name)
OVCAR-8 = test: Cytotoxicity against human OVCAR8 cells; type: functional; conditions: read-out: LC50 (the source's name)
SK-OV-3 = test: Cytotoxicity against human SKOV3 cells; type: functional; conditions: read-out: LC50 (the source's name)
786-0 = test: Cytotoxicity against human 786-0 cells; type: functional; conditions: read-out: LC50 (the source's name)
ACHN = test: Cytotoxicity against human ACHN cells; type: functional; conditions: read-out: LC50 (the source's name)
PC-3 = test: Cytotoxicity against human PC3 cells; type: functional; conditions: read-out: LC50 (the source's name)
DU-145 = test: Cytotoxicity against human DU145 cells; type: functional; conditions: read-out: LC50 (the source's name)
MCF7 = test: Cytotoxicity against human MCF7 cells; type: functional; conditions: read-out: LC50 (the source's name)
[4] = Cytotoxicity against human MCF7/ADR cells; type: functional; conditions: NCI/ADR-RES, read-out: LC50 (the source's name)
MDA-MB-231 = test: Cytotoxicity against human MDA-MB-231 cells; type: functional; conditions: read-out: LC50 (the source's name)
MDA-MB-435 = test: Cytotoxicity against human MDA-MB-435 cells; type: functional; conditions: read-out: LC50 (the source's name)
MDA-N = test: Cytotoxicity against human MDA-N cells; type: functional; conditions: read-out: LC50 (the source's name)
T47D = test: Cytotoxicity against human T47D cells; type: functional; conditions: read-out: LC50 (the source's name)
[5] = (§1) Toxicity in ip dosed mouse; type: organism-based; conditions: in vivo
Rattus norvegicus = species on record: Rattus norvegicus; test: Inhibition of NADH dehydrogenase and oxidase activity of electron transport protein complex 1 in rat […] assessed as blockade of reduction-oxidation process; type: cell membranes
Nucleic Acid = test: Induction of strand scission activity in bacteriophage X174RF1 DNA infected in Escherichia coli; type: nucleic-acid assay; conditions: unidentified phage
P388 = test: Cytotoxicity against mouse P388 cells; type: functional; conditions: read-out: LC50 (the source's name)
Mus musculus = test: as §1; type: organism-based; conditions: in vivo

Structure (SMILES): CC1=C\[C@H](C)C[C@@]2(C)CC[C@@H](O2)[C@@]23CC[C@@](C)(C[C@@H](O2)[C@H]2O[C@](C)(CC2=O)[C@@H](O)[C@@H]2CC[C@@]4(CCC[C@H](O4)[C@@H](C)C(=O)O[C@@H]4C[C@@H]([C@@]5(O)OCC[C@@H](C)[C@H]5O)O[C@@H]4\C=C\1)O2)O3 [PECTENOTOXIN II]
- LC50 [1]: < 0.1 µg/mL
- CC50 (EKVX): 0.062 µM
- CC50 (HOP-62): 0.0251 µM
- CC50 (HOP-92): 0.807 µM
- CC50 (COLO 205): 0.00782 µM
- CC50 (HCT-116): 0.0733 µM
- CC50 (SF-268): 0.154 µM
- CC50 (SF-295): 0.0777 µM
- CC50 (Malme-3M): 0.123 µM
- CC50 (M14): 4.73 µM
- CC50 (SK-MEL-28): 0.0423 µM
- CC50 (SK-MEL-5): 0.0552 µM
- CC50 (IGROV-1): 0.0673 µM
- CC50 (OVCAR-3): 0.0616 µM
- CC50 (A498): 0.0341 µM
- CC50 (CAKI-1): 0.0191 µM
- CC50 (RXF 393): 0.03 µM
- CC50 (TK-10): 0.0725 µM
- CC50 (UO-31): 0.0563 µM
- CC50 [2]: 0.0779 µM
- CC50 (BT-549): 0.0627 µM
- CC50 (CCRF-CEM): > 10 µM
- CC50 (HL-60(TB)): > 10 µM
- CC50 (K562): > 10 µM
- CC50 (MOLT-4): > 10 µM
- CC50 [3]: > 10 µM
- CC50 (SR): > 10 µM
- CC50 (A549): > 10 µM
- CC50 (NCI-H226): > 10 µM
- CC50 (NCI-H23): > 10 µM
- CC50 (NCI-H322M): > 10 µM
- CC50 (NCI-H460): > 10 µM
- CC50 (NCI-H522): > 10 µM
- CC50 (HCC 2998): > 10 µM
- CC50 (HCT-15): > 10 µM
- CC50 (HT-29): > 10 µM
- CC50 (KM12): > 10 µM
- CC50 (SW-620): > 10 µM
- CC50 (SF-539): > 10 µM
- CC50 (SNB-19): > 10 µM
- CC50 (U-251): > 10 µM
- CC50 (LOX IMVI): > 10 µM
- CC50 (SK-MEL-2): > 10 µM
- CC50 (UACC-257): > 10 µM
- CC50 (UACC-62): > 10 µM
- CC50 (OVCAR-4): > 10 µM
- CC50 (OVCAR-5): > 10 µM
- CC50 (OVCAR-8): > 10 µM
- CC50 (SK-OV-3): > 10 µM
- CC50 (786-0): > 10 µM
- CC50 (ACHN): > 10 µM
- CC50 (PC-3): > 10 µM
- CC50 (DU-145): > 10 µM
- CC50 (MCF7): > 10 µM
- CC50 [4]: > 10 µM
- CC50 (MDA-MB-231): > 10 µM
- CC50 (MDA-MB-435): > 10 µM
- CC50 (MDA-N): > 10 µM
- CC50 (T47D): > 10 µM
- LD50 [5]: 0.26 mg/kg

Structure (SMILES): CC1=C/[C@H](C)C[C@@]2(C)CC[C@@H](O2)[C@@]23CC[C@@](C)(C[C@@H](O2)[C@H]2O[C@](C)(CC2=O)[C@@H](O)[C@@H]2CC[C@@]4(CCC[C@H](O4)[C@@H](C)C(=O)O[C@@H]4C[C@@H]([C@@]5(O)OCC[C@@H](C)[C@H]5O)O[C@@H]4\C=C\1)O2)O3
- Activity (Rattus norvegicus): inactive
- Activity (Nucleic Acid): inactive

Structure (SMILES): O=C(NCCSSCCNC(=O)/C(Cc1ccc(O)c(Br)c1)=N/O)/C(Cc1ccc(O)c(Br)c1)=N/O [PSAMMAPLIN A]
- LC50 [1]: 4 µg/mL (≈ 6.02 µM)
- CC50 (A549): 6.43 µg/mL
- CC50 (P388): 0.64 µg/mL (≈ 0.963 µM)

Structure (SMILES): COc1cccc2c1C(=O)c1c(O)c3c(c(O)c1C2=O)C[C@@](O)(C(=O)CO)C[C@@H]3O[C@H]1C[C@H](N)[C@H](O)[C@H](C)O1 [DOXORUBICIN]
- LD50 (Mus musculus): 13 µg/mL

Structure (SMILES): O=c1[nH]cc(F)c(=O)[nH]1 [FLUOROURACIL]
- CC50 (P388): 0.2 µg/mL (≈ 1.54 µM)
